From patent US8445493B2, “Tetrasubstituted pyridazines hedgehog pathway antagonists” (Eli Lilly and Company, priority 2008, dated 2013) come the findings set out here.

This assay deals with Gli1 transcript in Shh-stimulated Daoy cells. The assay can be described thus: Functional assay for measuring the inhibition of Gli1 in Daoy cells (bDNA assay). Format: cell-based. Particulars: Homo sapiens; Daoy cells stimulated with Shh conditioned media, 24 hours incubation with compound, Gli1 transcript by bDNA luminescence. The procedure:
Biological activity is determined using a functional assay in Daoy neuronal cancer cells and measures levels of Gli1 ribonucleic acid via a bDNA (branched deoxyribonucleic acid) assay system (Panomics, Inc., Fremont, Calif.). Gli was originally discovered in a Glioblastoma cell line and encodes a zinc finger protein that is activated by Shh signaling. The maximum response is obtained by inducing Gli1 transcription in the Daoy cells with conditioned medium (human embryonic kidney, HEK-293 cells stably expressing recombinant Shh) for 24 hours and then measuring the amount of stimulated Gli1 transcript. […]
The bDNA assay system utilizes the technology of branched-chain DNA to allow amplification of a target ribonucleic acid (transcript). […] The addition of a chemilumigenic substrate during the amplification step allows for detection using luminescence. […]
Daoy cells are grown to confluency in tissue culture T225-flasks in Daoy growth media containing Minimum Essential Medium (MEM) plus 10% Fetal Bovine Serum (FBS) with […] non-essential amino acids and 1 mM sodium pyruvate. The cells are removed from the T225-flasks using trypsin ethylenediaminetetraacetic acid (EDTA), centrifuged, resuspended in media, and then counted. […]

Where a name gives a salt, the structure may show the parent alone.

By IC50 is commonly meant the midpoint of a concentration-inhibition curve. Take `Cc1c(-c2ccccc2)nnc(N2CCN(C(=O)NC3CCC(F)(F)CC3)[C@@H](C)C2)c1C` [Example 1, (S)—N-(4,4-Difluorocyclohexyl)-4-(4,5-dimethyl-6-phenylpyridazin-3-yl)-2-methylpiperazine-1-carboxamide hydrochloride]: the IC50 is roughly 1.26 nM.
